# Reference: ChEMBL document CHEMBL1201862, “PubChem BioAssay data set” (2004)
# Active and inactive are the calls of the source.
# What was measured:
# [1] = biological target: T1, High affinity choline transporter 1 (Homo sapiens, UniProt Q9GZV3); test: human choline transporter blockers, potency – cell-based, 5-point CRC, membrane potential dye, dose response (AID 504840); type: functional
# T1 sequence (Q9GZV3 whole entry): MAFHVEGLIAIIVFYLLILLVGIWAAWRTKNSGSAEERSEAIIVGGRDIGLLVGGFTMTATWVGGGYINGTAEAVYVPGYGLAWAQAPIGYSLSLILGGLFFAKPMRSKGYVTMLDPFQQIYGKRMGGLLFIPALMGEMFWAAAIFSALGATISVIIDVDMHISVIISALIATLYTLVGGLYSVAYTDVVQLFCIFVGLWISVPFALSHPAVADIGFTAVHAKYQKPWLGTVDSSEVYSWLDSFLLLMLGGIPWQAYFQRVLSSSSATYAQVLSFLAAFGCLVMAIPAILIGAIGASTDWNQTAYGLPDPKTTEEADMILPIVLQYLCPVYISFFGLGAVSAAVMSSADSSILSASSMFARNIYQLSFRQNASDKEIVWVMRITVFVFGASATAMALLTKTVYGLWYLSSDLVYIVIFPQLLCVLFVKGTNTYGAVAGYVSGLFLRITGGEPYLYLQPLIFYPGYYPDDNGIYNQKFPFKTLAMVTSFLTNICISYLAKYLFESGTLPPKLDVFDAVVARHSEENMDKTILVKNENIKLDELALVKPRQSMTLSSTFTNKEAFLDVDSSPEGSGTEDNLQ
# [2] = biological target: T2, Aminopeptidase N (Plasmodium falciparum FcB1/Columbia, UniProt O96935); test: malaria alanyl aminopeptidase activity blockers – biochemical, fluorogenic H-Leu-NHMec substrate, 1536-well (AID 1445); parameters: species or system Plasmodium falciparum 3D7, 3D7
# T2 sequence (O96935 whole entry): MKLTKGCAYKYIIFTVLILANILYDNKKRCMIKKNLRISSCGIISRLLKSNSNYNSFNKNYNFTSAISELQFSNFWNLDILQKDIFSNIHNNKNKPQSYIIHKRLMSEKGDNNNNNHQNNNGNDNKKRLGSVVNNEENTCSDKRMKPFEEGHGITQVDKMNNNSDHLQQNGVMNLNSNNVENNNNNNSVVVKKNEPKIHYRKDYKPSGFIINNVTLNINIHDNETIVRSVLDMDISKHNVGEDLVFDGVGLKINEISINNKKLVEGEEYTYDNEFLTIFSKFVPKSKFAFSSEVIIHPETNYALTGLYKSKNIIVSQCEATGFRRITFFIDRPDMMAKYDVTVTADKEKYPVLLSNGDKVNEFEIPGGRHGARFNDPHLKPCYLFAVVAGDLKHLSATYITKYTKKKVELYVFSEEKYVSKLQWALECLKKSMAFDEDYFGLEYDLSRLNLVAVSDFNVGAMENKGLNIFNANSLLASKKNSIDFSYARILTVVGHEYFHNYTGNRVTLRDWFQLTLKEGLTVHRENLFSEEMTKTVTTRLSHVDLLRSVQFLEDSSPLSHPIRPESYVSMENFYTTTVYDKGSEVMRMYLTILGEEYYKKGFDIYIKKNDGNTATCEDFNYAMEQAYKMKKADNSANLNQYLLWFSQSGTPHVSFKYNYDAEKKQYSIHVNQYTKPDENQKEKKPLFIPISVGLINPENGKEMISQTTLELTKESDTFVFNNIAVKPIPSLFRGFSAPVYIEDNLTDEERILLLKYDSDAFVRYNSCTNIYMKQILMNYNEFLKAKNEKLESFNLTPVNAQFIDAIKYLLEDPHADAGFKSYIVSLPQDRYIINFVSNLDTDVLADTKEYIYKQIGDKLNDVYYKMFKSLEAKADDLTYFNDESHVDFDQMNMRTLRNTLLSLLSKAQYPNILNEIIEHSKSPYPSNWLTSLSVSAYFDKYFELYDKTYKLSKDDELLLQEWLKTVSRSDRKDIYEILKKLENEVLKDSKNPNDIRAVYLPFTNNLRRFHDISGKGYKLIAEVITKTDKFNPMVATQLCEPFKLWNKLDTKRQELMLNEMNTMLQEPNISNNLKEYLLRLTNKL
# [3] = viability of uninfected HEp-2 cells – cell-based, HTS, cytotoxicity control for RSV inhibitor project, dose response (AID 2410); type: functional; conditions: human respiratory syncytial virus
# [4] = Luminescence Cell-Based Dose Retest to Confirm Inhibitors of Cancer Stem Cells. [Related pubchem assays (depositor defined):AID2717, AID2721]; type: functional, Homo sapiens; conditions: Homo sapiens
# [5] = microbe, parasite or virus in culture; type: functional; conditions: Mycobacterium tuberculosis
# [6] = biological target: Cytochrome P450 2C9 (Homo sapiens, UniProt P11712)
# Sequence of Cytochrome P450 2C9 (P11712 whole entry): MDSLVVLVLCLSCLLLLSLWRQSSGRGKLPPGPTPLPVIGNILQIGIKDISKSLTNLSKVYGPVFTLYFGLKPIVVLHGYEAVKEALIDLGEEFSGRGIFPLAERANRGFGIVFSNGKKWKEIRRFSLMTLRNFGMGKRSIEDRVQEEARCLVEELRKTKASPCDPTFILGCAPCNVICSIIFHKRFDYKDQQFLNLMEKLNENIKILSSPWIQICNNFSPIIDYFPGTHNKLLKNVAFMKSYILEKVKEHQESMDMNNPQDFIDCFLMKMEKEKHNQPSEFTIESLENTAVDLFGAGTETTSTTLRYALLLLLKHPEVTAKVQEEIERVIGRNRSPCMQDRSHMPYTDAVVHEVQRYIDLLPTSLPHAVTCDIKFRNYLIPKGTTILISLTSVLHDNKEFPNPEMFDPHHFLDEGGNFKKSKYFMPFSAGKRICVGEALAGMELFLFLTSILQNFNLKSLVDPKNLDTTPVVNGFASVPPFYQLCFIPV
# [7] = biological target: Cytochrome P450 2C19 (Homo sapiens, UniProt P33261); test: Cytochrome panel assay with activity outcomes. Panel member name: p450-cyp2c19 Compounds with AC50 equal or less than 10 uM are considered active; type: functional; conditions: read-out: AC50
# Sequence of Cytochrome P450 2C19 (P33261 whole entry): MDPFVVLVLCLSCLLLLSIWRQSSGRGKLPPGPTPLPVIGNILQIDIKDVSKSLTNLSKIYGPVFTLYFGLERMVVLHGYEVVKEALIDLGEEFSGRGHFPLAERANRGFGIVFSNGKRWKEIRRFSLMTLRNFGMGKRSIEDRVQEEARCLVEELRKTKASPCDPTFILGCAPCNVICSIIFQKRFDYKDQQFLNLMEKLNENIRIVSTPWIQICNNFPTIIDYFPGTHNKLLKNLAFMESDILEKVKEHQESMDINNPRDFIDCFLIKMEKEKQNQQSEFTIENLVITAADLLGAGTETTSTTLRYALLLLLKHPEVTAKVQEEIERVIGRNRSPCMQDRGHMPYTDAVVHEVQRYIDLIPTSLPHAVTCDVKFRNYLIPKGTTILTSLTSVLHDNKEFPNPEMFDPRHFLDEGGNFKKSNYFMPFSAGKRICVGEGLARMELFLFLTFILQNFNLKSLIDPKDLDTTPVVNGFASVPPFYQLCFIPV
# [8] = viability of PTEN-deleted HCT116 cells – cell-based, HCT116 PTEN knockout, dose response (AID 1047); type: functional;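 further: HCT116 colon tumor cells with PTEN knocked out; cells exposed to compound for 60 hours before readout; potency for loss of cell viability measured by luminescence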
# [9] = viability of HCT116 lacking mutant beta-catenin – cell-based, human colon tumor, dose response (AID 1045); type: functional;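 further: HCT116 colon tumor cells with beta catenin knocked out; cells exposed to compound for 60 hours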
# [10] = biological target: T3, Short transient receptor potential channel 4 (Mus musculus, UniProt Q9QUQ5); test: calcium entry via TRPC4 opening agents – cell-based, HEK293 TRPC4/mu-opioid, Fluo-4 calcium, dose response (AID 434937); type: functional
# T3 sequence (Q9QUQ5 whole entry): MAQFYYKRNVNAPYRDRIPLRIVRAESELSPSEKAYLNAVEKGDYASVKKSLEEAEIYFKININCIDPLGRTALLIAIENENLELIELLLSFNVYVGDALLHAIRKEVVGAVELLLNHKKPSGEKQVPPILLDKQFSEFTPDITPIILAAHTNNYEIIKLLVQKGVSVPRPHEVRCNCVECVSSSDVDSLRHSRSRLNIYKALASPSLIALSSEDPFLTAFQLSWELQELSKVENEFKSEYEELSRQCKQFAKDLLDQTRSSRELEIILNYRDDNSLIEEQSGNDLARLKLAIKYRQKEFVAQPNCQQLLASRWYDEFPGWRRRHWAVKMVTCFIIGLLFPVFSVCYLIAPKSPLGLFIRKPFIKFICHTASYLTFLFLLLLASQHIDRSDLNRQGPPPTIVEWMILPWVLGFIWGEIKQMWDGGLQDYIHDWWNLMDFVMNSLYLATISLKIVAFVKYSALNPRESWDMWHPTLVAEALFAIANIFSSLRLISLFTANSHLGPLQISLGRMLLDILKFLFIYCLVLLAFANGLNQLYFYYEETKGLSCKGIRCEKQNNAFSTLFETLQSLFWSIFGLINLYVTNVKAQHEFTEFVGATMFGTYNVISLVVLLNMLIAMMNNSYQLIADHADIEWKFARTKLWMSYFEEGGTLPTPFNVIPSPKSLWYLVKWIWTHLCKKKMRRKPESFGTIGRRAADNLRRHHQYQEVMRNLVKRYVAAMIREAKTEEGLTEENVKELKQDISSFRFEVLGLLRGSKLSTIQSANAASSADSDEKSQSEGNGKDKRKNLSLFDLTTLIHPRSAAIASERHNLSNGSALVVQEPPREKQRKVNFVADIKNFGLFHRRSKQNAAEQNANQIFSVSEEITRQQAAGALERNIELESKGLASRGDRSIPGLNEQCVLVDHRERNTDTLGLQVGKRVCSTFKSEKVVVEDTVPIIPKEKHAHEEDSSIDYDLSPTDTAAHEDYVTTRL
# [11] = biological target: T4, Cytochrome P450 1A2 (Homo sapiens, UniProt P05177);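 further: PubChem cytochrome P450 panel assay, CYP1A2 panel member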
# T4 sequence (P05177 whole entry): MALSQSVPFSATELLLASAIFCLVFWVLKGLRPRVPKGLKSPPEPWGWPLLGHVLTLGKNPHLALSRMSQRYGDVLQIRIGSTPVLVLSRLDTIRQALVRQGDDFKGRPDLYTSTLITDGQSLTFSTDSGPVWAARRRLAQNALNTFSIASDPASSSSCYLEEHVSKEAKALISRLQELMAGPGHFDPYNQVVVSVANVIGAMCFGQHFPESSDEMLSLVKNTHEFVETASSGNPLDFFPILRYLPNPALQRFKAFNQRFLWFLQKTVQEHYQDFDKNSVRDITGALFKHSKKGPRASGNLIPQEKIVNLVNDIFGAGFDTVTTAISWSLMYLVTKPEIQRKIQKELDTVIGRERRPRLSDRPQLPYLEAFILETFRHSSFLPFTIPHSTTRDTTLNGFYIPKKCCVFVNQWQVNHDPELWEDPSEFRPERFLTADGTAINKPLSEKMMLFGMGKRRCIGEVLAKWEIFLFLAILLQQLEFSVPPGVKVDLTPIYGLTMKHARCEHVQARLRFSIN
# [12] = biological target: Cytochrome P450 2D6 (Homo sapiens, UniProt P10635);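 further: CYP2D6 member of a cytochrome P450 panel assay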
# Sequence of Cytochrome P450 2D6 (P10635 whole entry): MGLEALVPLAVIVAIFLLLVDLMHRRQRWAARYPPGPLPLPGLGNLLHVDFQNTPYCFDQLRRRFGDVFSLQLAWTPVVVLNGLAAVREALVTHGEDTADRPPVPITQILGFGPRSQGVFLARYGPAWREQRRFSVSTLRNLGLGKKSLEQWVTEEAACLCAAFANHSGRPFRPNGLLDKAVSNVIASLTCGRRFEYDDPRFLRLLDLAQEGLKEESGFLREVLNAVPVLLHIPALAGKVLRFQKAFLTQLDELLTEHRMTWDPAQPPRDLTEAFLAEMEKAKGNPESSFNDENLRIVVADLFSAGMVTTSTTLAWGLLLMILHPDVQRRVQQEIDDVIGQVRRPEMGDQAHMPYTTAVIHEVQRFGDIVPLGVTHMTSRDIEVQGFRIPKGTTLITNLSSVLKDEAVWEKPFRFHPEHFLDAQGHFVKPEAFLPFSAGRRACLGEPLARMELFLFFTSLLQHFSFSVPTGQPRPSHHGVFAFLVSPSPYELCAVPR
# [13] = A cytotoxicity screen of small molecule inhibitors of the PhoP region in Salmonella typhi identified in the primary screen. [Related pubchem assays: 1850, 1864, 1985 ]; type: functional
# [14] = biological target: T5, RNA-binding protein pos-1 (Caenorhabditis elegans, UniProt G5EF15); test: disruptors of C. elegans POS-1 RNA interaction – biochemical, fluorescence polarization, dose response (AID 1964);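 further: purified POS-1 fused to maltose binding protein made in E. coli; potency of compounds blocking POS-1 binding to fluorescent RNA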
# T5 sequence (G5EF15 whole entry): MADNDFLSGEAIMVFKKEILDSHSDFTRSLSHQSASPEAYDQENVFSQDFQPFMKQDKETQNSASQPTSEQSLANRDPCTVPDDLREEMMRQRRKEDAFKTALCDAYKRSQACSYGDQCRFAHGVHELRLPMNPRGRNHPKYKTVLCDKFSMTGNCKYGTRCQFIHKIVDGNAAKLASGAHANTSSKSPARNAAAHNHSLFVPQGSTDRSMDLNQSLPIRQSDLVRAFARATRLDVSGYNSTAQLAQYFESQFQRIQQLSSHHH
# [15] = biological target: T6, Zinc finger protein mex-5 (Caenorhabditis elegans, UniProt Q9XUB2); test: potency of MEX-5 RNA-binding blockers – biochemical, C. elegans, fluorescence polarization, dose response (AID 1960)
# T6 sequence (Q9XUB2 whole entry): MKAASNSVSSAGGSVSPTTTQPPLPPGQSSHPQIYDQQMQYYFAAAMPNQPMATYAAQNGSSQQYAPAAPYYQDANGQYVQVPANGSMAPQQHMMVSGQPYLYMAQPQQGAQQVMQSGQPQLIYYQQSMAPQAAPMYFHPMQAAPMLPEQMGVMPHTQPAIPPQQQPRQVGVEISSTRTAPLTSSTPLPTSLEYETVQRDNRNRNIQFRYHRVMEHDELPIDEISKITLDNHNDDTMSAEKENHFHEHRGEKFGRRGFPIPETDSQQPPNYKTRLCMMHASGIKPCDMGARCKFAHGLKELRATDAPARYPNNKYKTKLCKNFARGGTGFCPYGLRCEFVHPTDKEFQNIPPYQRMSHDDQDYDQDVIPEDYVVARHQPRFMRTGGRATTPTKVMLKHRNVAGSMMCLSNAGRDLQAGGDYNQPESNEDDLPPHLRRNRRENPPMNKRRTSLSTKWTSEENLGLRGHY
smiles,measurement,setting,value
O=C(CSc1nc2ccccc2c(=O)n1C1CC1)NCc1ccccc1,IC50,[1],4.79 µM (active)
C=CCOc1ccc(/C=C2\C(=N)N3N=C(S(=O)(=O)CC)SC3=NC2=O)cc1OC,IC50,[2],24.5 µM (active)
CCn1c(C)c(C)c2cc(C(=O)Nc3cccc(Cl)c3)ccc21,CC50,[3],30.4 µM (active)
same,AC50,[4],3.56 µM (active)
same,CC50,[5],> 40 µM (active)
same,AC50,[6],inconclusive
CCCc1cc(=O)oc2c(CN3CCN(C)CC3)c(O)c(Cl)cc12,IC50,[2],42 µM (active)
CNc1oc(C)nc1S(=O)(=O)c1ccc(C)cc1,AC50,[7],31.6 µM (inconclusive)
same,AC50,[6],inconclusive
Cc1ccccc1C(O)(Cc1ccccc1)C1CN2CCC1CC2 (stereo not given),EC50,[8],14.8 µM (active)
same,EC50,[9],14.5 µM (active)
same,EC50,[10],5.31 µM (active)
CN1CCN(c2ncc3nc(-c4cn(C)c5ccccc45)c(=O)n(C[C@H]4CCCO4)c3n2)CC1,AC50,[11],6.31 µM (inconclusive)
same,AC50,[6],inconclusive
Cn1c(CN2CCCCC2)nc2cc(NC(=O)c3ccccc3Cl)ccc21,IC50,[1],13.5 µM (active)
CS(=O)(=O)N1CCC(C(=O)c2cccc(Cl)c2)CC1,IC50,[2],41.1 µM (active)
Cc1cccc(C)c1OCC(O)CN (stereo not given),EC50,[10],4.22 µM (active)
COCCOC(=O)c1c(C)oc2ccc(NS(=O)(=O)c3cccs3)cc12,IC50,[2],48.5 µM (active)
Cn1c(=O)c2nc(-c3ccccc3)oc2c2ccccc21,AC50,[12],28.2 µM (inconclusive)
same,AC50,[7],28.2 µM (inconclusive)
same,AC50,[6],inconclusive
Cc1sc2nc(CSc3ccccc3)nc(NCCN(C)C)c2c1C,EC50,[10],2.99 µM (active)
Cc1csc(NC(=O)CCN2C(=O)c3ccccc3S2(=O)=O)n1,IC50,[1],13.8 µM (active)
O=C(CCCN1C(=O)c2cccc3cccc(c23)C1=O)N1CCc2ccccc2C1,AC50,[12],22.4 µM (inconclusive)
same,AC50,[6],inconclusive
Cc1cccc(NC(=O)c2sc3nc(-c4ccccc4)cn3c2C)n1,EC50,[13],> 50 µM (active)
same,EC50,[14],> 300 µM (not active)
same,EC50,[15],> 300 µM (not active)
CN(C)C(=O)c1ccc(-c2nc(NC3CCNCC3)c3ccccc3n2)cc1,AC50,[11],20 µM (inconclusive)
same,AC50,[6],inconclusive
CN(CCc1ccccn1)C(=O)CC1C(=O)NCCN1Cc1cccc(F)c1 (stereo not given),EC50,[10],2.37 µM (active)
COc1ccccc1CCC(=O)Nc1cc(S(=O)(=O)N2CCCCC2)ccc1N1CCN(C)CC1,EC50,[10],0.944 µM (active)
CCN1CCN(C(=O)c2ccc3nc(-c4ccccc4)c(-c4ccccc4)nc3c2)CC1,IC50,[1],15.6 µM (active)
CC(C)C(=O)Nc1cccc(NC(=O)c2ccc(Cl)cc2Cl)c1,IC50,[1],7.24 µM (active)
Nc1ccn([C@@H]2CC[C@H](CO)O2)c(=O)n1,AC50,[6],inconclusive
